In patent US20260176289A1, “SMALL MOLECULE INHIBITORS OF KRAS PROTEINS” (Merck Sharp & Dohme LLC, priority 2022, published 2026):
Like-named read-outs stand apart in the source and are kept apart here.

Key:
[1] = target: KRAS-G13D (Homo sapiens, UniProt P01116, G13D); assay: SOS-catalyzed nucleotide exchange assay (Procedure A, TR-FRET), KRAS-G13D; format: biochemical; settings: nucleotide exchange, Procedure A; read-out: KRAS G13D GNE IC50
[2] = target: KRAS-WT (Homo sapiens, UniProt P01116); assay: SOS-catalyzed nucleotide exchange assay (Procedure A, TR-FRET), KRAS-WT; format: biochemical; settings: nucleotide exchange, read-out: KRAS WT GNE IC50
Chain of KRAS-WT (P01116 with tags, fused parts or gaps isoform P01116-2): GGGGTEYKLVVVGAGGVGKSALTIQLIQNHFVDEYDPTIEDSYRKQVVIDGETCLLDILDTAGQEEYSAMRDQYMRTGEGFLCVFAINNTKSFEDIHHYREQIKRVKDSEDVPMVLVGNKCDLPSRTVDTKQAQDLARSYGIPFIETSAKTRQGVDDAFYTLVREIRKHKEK
Outline: (§1)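 Signal ratio (520/495 nm, excitation 340 nm) reports Bodipy-GDP retention on biotinylated RAS after SOS-catalyzed exchange with 3 mM GTP. SOS was 40 nM, except 160 nM for G12V. Room-temperature exchange lasted 60 min (90 min for G12V), following a 60 min compound preincubation.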

[3] = test system: AsPC-1 cells; assay: Cellular phospho-ERK assay, AsPC-1 cells (homozygous KRAS-G12D); format: cell-based; settings: Homo sapiens, ASPC1, 2 h, KRAS-G12D, 2 hours, read-out: AsPC1 pERK IC50
Outline: (§2)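 Cells seeded at 10,000-15,000 per well were incubated overnight, then exposed to compound for 2 hours at 37 °C in a 10-point, 1:3 series topping at 30 μM final. Lysates were assayed by Alpha SureFire Ultra multiplex for p-ERK and total ERK; IC50 came from a 4-parameter logistic fit of their ratio.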

[4] = target: KRAS-G12V (Homo sapiens, UniProt P01116, G12V); assay: SOS-catalyzed nucleotide exchange assay (Procedure A, TR-FRET), KRAS-G12V; format: biochemical; settings: nucleotide exchange, read-out: KRAS G12V GNE IC50
Chain of KRAS-G12V (P01116 with tags, fused parts or gaps isoform P01116-2 G12V): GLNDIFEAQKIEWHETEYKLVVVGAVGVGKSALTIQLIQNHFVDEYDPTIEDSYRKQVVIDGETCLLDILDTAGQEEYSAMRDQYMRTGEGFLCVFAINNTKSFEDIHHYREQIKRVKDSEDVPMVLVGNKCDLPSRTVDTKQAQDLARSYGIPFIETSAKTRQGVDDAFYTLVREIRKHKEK
Outline: as §1

[5] = test system: SW620 cells; assay: Cellular phospho-ERK assay, SW620 cells (homozygous KRAS-G12V); format: cell-based; settings: Homo sapiens, SW-620, KRAS-G12V, 2 hours, read-out: SW620 pERK IC50
Outline: as §2

[6] = target: KRAS-G12C (C51S/C80L/C118S) (Homo sapiens, UniProt P01116, C118S/C51S/C80L/G12C); assay: SOS-catalyzed nucleotide exchange assay (Procedure A, TR-FRET), KRAS-G12C; format: biochemical; settings: nucleotide exchange, Procedure A; read-out: KRAS G12C GNE IC50
Chain of KRAS-G12C (C51S/C80L/C118S) (P01116 with tags, fused parts or gaps isoform P01116-2 G12C/C51S/C80L/C118S): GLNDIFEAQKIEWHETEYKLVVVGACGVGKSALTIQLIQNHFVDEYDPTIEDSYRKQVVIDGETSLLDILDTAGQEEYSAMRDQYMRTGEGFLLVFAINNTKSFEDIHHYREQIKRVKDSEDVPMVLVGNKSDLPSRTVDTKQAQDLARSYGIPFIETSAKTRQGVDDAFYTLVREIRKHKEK
Outline: as §1

[7] = test system: MKN-1 cells; assay: Cellular phospho-ERK assay, MKN-1 cells (amplified wild-type KRAS); format: cell-based; settings: Homo sapiens, amplified wild-type KRAS, 2 hours, read-out: MKN1 pERK IC50
Outline: as §2

[8] = target: KRAS-G12D (Homo sapiens, UniProt P01116, G12D); assay: SOS-catalyzed nucleotide exchange assay (Procedure A, TR-FRET), KRAS-G12D; format: biochemical; settings: nucleotide exchange, read-out: KRAS G12D GNE IC50
Chain of KRAS-G12D (P01116 with tags, fused parts or gaps isoform P01116-2 G12D): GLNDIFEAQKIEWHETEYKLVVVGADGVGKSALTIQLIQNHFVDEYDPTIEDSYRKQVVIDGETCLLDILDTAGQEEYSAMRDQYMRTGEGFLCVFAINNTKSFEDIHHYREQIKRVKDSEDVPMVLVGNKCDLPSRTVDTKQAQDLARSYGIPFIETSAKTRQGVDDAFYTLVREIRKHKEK
Outline: as §1

[9] = test system: PANC08.13 cells; assay: Cellular phospho-ERK assay, PANC08.13 cells (homozygous KRAS-G12D); format: cell-based; settings: Homo sapiens, read-out: PANC-08.13 pERK IC50
Outline: as §2

Chain of KRAS-G13D (P01116 with tags, fused parts or gaps isoform P01116-2 G13D): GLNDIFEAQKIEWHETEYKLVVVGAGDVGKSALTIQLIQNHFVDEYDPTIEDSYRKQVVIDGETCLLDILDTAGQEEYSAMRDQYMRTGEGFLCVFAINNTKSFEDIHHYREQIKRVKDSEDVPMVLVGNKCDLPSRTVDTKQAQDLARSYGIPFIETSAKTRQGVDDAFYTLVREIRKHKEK

IC50 [1] [nM]	IC50 [2] [nM]	IC50 [3] [nM]	IC50 [4] [nM]	IC50 [6] [nM]	IC50 [8] [nM]	IC50 ([9]; PANC-08-13, KRAS-G12D, 2 hours) [nM]	IC50 ([9]; PANC-08-13, 2 hours compound incubation) [nM]	Compound	IC50 [5] [nM]	IC50 [7] [nM]
94.3	101	694	80.7	96.8	61.2	188	–	Cc1cc2[nH]ncc2c(-c2nccc3c4c(N5CCC[C@@](C)(O)C5)nc(OC[C@@]56CCCN5C[C@H](F)C6)nc4n(C)c23)c1C(F)(F)F (single isomer, unassigned) [Ex-5]	–	127
105	158	1200	125	41.1	84.2	240	–	Cn1c2nc(OC[C@@]34CCCN3C[C@H](F)C4)nc(N3CCOC[C@@](C)(O)C3)c2c2ccnc(-c3c(C(F)F)c(Cl)cc4[nH]ncc34)c21 (single isomer, unassigned) [Ex-11]	–	–
204	246	667	143	102	96.9	242	–	Cc1cc2[nH]ncc2c(-c2nccc3c2sc2nc(OC[C@@]45CCCN4C[C@H](F)C5)nc(N4CCC[C@@](C)(O)C4)c23)c1C(F)(F)F [Ex-128, (3R)-1-(2-(((2R, 7aS)-2-fluorotetra-hydro-1H-pyrrol-izin-7a(5H)-yl)meth-oxy)-8-(6-methyl-5-(trifluoromethyl)-1H-indazol-4-yl)-pyrido[4′,3′:4,5]thieno[2,3-d]pyr-imidin-4-yl)-3-methylpiperidin-3-ol]	–	214
668	822	–	194	96.7	591	–	812	Cc1cc2[nH]ncc2c(-c2nccc3c2sc2nc(OC[C@@]45CCCN4C[C@H](F)C5)nc(NC4COC4)c23)c1C(F)(F)F [Ex-184, 2-(((2R,7aS)-2-fluoro-tetrahydro-1H-pyrrolizin-7a(5H)-yl)methoxy)-8-(6-methyl-5-(trifluorometh-yl)-1H-indazol-4-yl)-N-(oxetan-3-yl)pyrido [4′,3′:4,5]thieno[2,3-d] pyrimidin-4-amine]	–	–
1100	1230	–	574	456	360	562	–	Cc1cc2[nH]ncc2c(-c2cncc3c2sc2nc(OC[C@@]45CCCN4C[C@H](F)C5)nc(N4CCOC[C@@](C)(O)C4)c23)c1C(F)(F)F [Ex-273, (6S)-4-(2-(((2R,7aS)-2-fluorotetrahydro-1H-pyrrolizin-7a(5H)-yl)methoxy)-8-(6-methyl-5-(trifluoromethyl)-1H-indazol-4-yl)pyrido[3′,4′:4,5]thieno[2,3-d]pyrimidin-4-yl)-6-methyl-1,4-oxazepan-6-ol]	–	–
87.6	330	–	401	121	671	1010	–	C[C@@]1(O)COCCN(c2nc(OC[C@@]34CCCN3C[C@H](F)C4)nc3sc4c(-c5ccc(F)c6sc(N)c(C#N)c56)cncc4c23)C1 [Ex-274, 2-amino-7-fluoro-4-(2-(((2R,7aS)-2-fluorotetrahydro-1H-pyrrolizin-7a(5H)-yl)methoxy)-4-((S)-6-hydroxy-6-methyl-1,4-oxazepan-4-yl)pyrido[3′,4′:4,5]thieno[2,3-d]pyrimidin-8-yl)benzo[b]thiophene-3-carbonitrile]	–	–
1030	1400	–	365	175	611	2330	–	Cc1cc2[nH]ncc2c(-c2nccc3c2oc2nc(OC[C@@]45CCCN4C[C@H](F)C5)nc(N4CCOC[C@@](C)(O)C4)c23)c1C(F)(F)F [Ex-290, (6S)-4-(2-(((2R,7aS)-2-fluorotetrahydro-1H-pyrrolizin-7a(5H)-yl)methoxy)-8-(6-methyl-5-(trifluoromethyl)-1H-indazol-4-yl)pyrido[4′,3′:4,5]furo[2,3-d]pyrimidin-4-yl)-6-methyl-1,4-oxazepan-6-ol]	–	–
210	377	–	207	116	153	306	–	Cc1cc2[nH]ncc2c(-c2nccc3c2oc2nc(OC[C@]4(CN(C)C)CC4(F)F)nc(N4CCOC[C@@](C)(O)C4)c23)c1C(F)(F)F [Ex-291, (6S)-4-(2-(((R)-1-((dimethylamino)methyl)-2.2-difluorocyclopropyl)meth-oxy)-8-(6-methyl-5-(trifluoromethyl)-1H-indazol-4-yl)pyrido[4′,3′:4,5]furo[2,3-d]pyrimidin-4-yl)-6-methyl-1,4-oxazepan-6-ol]	–	–

Compound	IC50 [1] [nM]	IC50 [2] [nM]	IC50 [3] [nM]	IC50 [4] [nM]	IC50 [6] [nM]	IC50 [8] [nM]	IC50 ([9]; PANC-08-13, KRAS-G12D, 2 hours) [nM]	IC50 ([9]; PANC-08-13, 2 hours compound incubation) [nM]	IC50 [5] [nM]	IC50 [7] [nM]
Cc1cc2[nH]ncc2c(-c2nccc3c4c(N5CCOC[C@@](C)(O)C5)nc(OC[C@@]56CCCN5C[C@H](F)C6)nc4n(C)c23)c1C(F)(F)F (single isomer, unassigned) [Ex-1]	77.4	93.4	376	55.6	19.8	41.5	237	–	429	222
Cn1c2nc(OC[C@@]34CCCN3C[C@H](F)C4)nc(N3CCOC[C@@](C)(O)C3)c2c2ccnc(-c3ccc(F)c4sc(N)c(C#N)c34)c21 [Ex-16, 2-amino-7-fluoro-4-(2-(((2R,7aS)-2-fluorotetrahydro-1H-pyrrolizin-7a(5H)-yl)methoxy)-4-((S)-6-hydroxy-6-methyl-1,4-oxazepan-4-yl)-9-methyl-9H-pyrido[4′,3′:4,5]pyrrolo[2,3-d]pyrimidin-8-yl)benzo[b]thiophene-3-carbonitrile]	315	765	–	561	1320	952	5450	–	8490	1770
COc1cc2c3c(N4CCOC[C@@](C)(O)C4)nc(OC[C@@]45CCCN4C[C@H](F)C5)nc3n(C)c2c(-c2c(C(F)(F)F)c(C)cc3[nH]ncc23)n1 [Ex-26, (6S)-4-(2-(((2R,7aS)-2-fluorotetrahydro-1H-pyrrolizin-7a(5H)-yl)methoxy)-6-methoxy-9-methyl-8-(6-methyl-5-(trifluoromethyl)-1H-indazol-4-yl)-9H-pyrido[4′,3′:4,5]pyrrolo[2,3-d]pyrimidin-4-yl)-6-methyl-1,4-oxazepan-6-ol]	94.3	189	–	96.3	209	96	170	–	709	325
Cc1cc2[nH]ncc2c(-c2nccc3c2sc2nc(OC[C@@]45CCCN4C[C@H](F)C5)nc(N4CCOC[C@@](C)(O)C4)c23)c1Cl [Ex-32, (6S)-4-(8-(5-chloro-6-methyl-1H-indazol-4-yl)-2-(((2R,7aS)-2-fluorotetrahydro-1H-pyrrolizin-7a(5H)-yl)methoxy)pyrido[4′,3′:4,5]thieno[2,3-d]pyrimidin-4-yl)-6-methyl-1,4-oxazepan-6-ol]	111	202	–	212	91.7	101	174	–	222	274
C#Cc1c(C)cc2[nH]ncc2c1-c1nccc2c1sc1nc(OC[C@@]34CCCN3C[C@H](F)C4)nc(N3CCOC[C@@](C)(O)C3)c12 [Ex-33, (6S)-4-(8-(5-ethynyl-6-methyl-1H-indazol-4-yl)-2-(((2R,7aS)-2-fluorotetrahydro-1H-pyrrolizin-7a(5H)-yl)methoxy)pyrido[4′,3′:4,5]thieno[2,3-d]pyrimidin-4-yl)-6-methyl-1,4-oxazepan-6-ol]	19.7	35.7	–	28.7	35.3	13.6	60.1	–	126	52.9
C#Cc1cccc2cccc(-c3nccc4c3sc3nc(OC[C@@]56CCCN5C[C@H](F)C6)nc(N5CCOC[C@@](C)(O)C5)c34)c12 [Ex-127, (S)-4-(8-(8-ethynyl-naphthalen-1-yl)-2-(((2R,7aS)-2-fluoro-tetrahydro-1H-pyr-rolizin-7a(5H)-yl)-methoxy)pyrido[4′, 3′:4,5]thieno[2,3-d]pyrimidin-4-yl)-6-methyl-1,4-oxaze-pan-6-ol]	287	233	–	121	91.7	103	351	–	483	510
